Columns and labels:
3′ UTR of the TNFα gene = assay: cell-based luciferase reporter assay, 5B cell line (luciferase gene with entire 3′ UTR of the TNFα gene); set-up: species or system mouse; settings: 10 μM compound; for Luciferase 5B (% of DMSO control): 1 h, then LPS, 5B cell line; for Luciferase 5B/3B (% of DMSO control 5B)/(% of DMSO control 3B): ratio of 5B to control 3B cell line
Experimental: The candidate compounds were tested in a high-throughput, cell-based luciferase reporter assay. For this assay, a commercially available mouse macrophage Raw 264.7 cell line was stably transfected with a construct containing the CMV promoter operably linked to the luciferase gene which was modified using standard molecular biology techniques to contain the entire 3′ UTR of the TNFα gene. This 3′ UTR is important for the stability and translation of TNFα in cells. To control for effects of candidate compounds that are not specific for TNFα, a control cell line, called “3B,” was generated by stably transfecting the 264.7 cell line with a commercially available construct containing the luciferase gene (without the addition of the heterologous 3′ UTR of the TNFα gene) under the regulation of the CMV promoter.
[…] Then, lipopolysaccharide (LPS) was added to stimulate TNFα secretion. Luciferase activity was measured by determining the luminescence intensity due to the reaction of lucifern, ATP, Mg^2+, and molecular O2 (see, for example, Ausubel et al., supra). The luciferase activity in a cell incubated with a candidate compound was reported as a percentage of the luciferase activity for the corresponding cell incubated with DMSO vehicle only.
After correction for any effect caused by the administration of the DMSO only vehicle control, the effect of a candidate compound on luciferase activity in the 3B control cell line represents the global effect of the compound on any step required for expression or activity of luciferase protein, such as luciferase gene transcription, mRNA processing, mRNA stability, translation, protein stability, or enzymatic activity. […] In this case, the luciferase activity in the 5B cell line treated with the DMSO vehicle control is similar to the luciferase activity in the control 3B cell line treated with the candidate compound. Thus, the response of the 5B cell line (as a percent of the DMSO control) and the ratio of the luciferase activity in the 5B cell line (as a percent of the DMSO control) to the luciferase activity in the control 3B cell line (as a percent of the DMSO control) are similar. In desirable embodiments, the response of the 5B cell line and the 5B/3B ratio differ by less than 50, 40, 30, 20, 10, or 5%.

TNFα = assay: ELISA of TNFα secreted into the media after LPS; type: cell-based; settings: 10 μM compound, 1 h, then LPS
Experimental: The ability of candidate compounds to reduce the amount of secreted TNFα was also directly tested using an ELISA assay. […] A standard ELISA analysis was used to measure the amount of TNFα secreted into the media (see, for example, Ausubel et al., supra). The effect of a candidate compound on TNFα secretion in this assay is reported in the following tables as a percentage of the amount of TNFα secreted by a control cell that was administered a DMSO vehicle control only.

Compound	Luciferase 5B (% of DMSO control) (3′ UTR of the TNFα gene)	Luciferase 5B/3B (% of DMSO control 5B)/(% of DMSO control 3B) (3′ UTR of the TNFα gene)	TNFα Secretion (% of DMSO control) (TNFα)
COc1ccc(CC(NC(=O)c2ccc(C(=NNC(=N)N)c3ccccc3)cc2)C(=O)N2CCN(C(=O)C(CC(C)C)NC(=O)c3ccc(C(=NNC(=N)N)c4ccccc4)cc3)CC2)cc1 (mixture of isomers) [MES 10237]	20 % of DMSO control	27 (% of DMSO control 5B)/(% of DMSO control 3B)	39 % of DMSO control
CC(C)CC(NC(=O)c1ccc(C(=NNC(=N)N)c2ccccc2)cc1)C(=O)N1CCN(C(=O)C(Cc2ccccc2)NC(=O)c2ccccc2)CC1 (stereo not drawn) [MES 10248]	56 % of DMSO control	72 (% of DMSO control 5B)/(% of D	39 % of DMSO control
CC(C)C[C@H](NC(=O)c1ccccc1)C(=O)N1CCN(C(=O)[C@H](Cc2ccccc2)NC(=O)c2ccc(/C(=N/N=C(N)N)c3ccccc3)cc2)CC1.O=C(O)C(F)(F)F [MES 10249, (E)-Guanylhydrazone of 1-[(S)-N-(4-benzoylbenzoyl)-2-amino-3-phenylpropanoyl]-4-[(2S)-N-(benzoyl)-2-amino-4-methylpentanoyl]-1,4-piperazine trifluoroacetate]	58 % of DMSO control	68 (% of DMSO control 5B)/(% of D	40 % of DMSO control
(E,E)-Bisguanylhydrazone of 1-[(S)-N-(4-benzoylbenzoyl)-2-amino-3-phenylpropanoyl]-4-[(2S)-N-(3-acetylbenzoyl)-2-amino-4-methylpentanoyl]-1,4-piperazine bis trifluoroacetate [MES 10171]	20 % of DMSO control	24 (% of DMSO control 5B)/(% of DMSO control 3B)	57 % of DMSO control
CC(C)CC(NC(=O)c1ccc(C(=NNC(=N)N)c2ccccc2)cc1)C(=O)N1CCN(C(=O)C(Cc2ccccc2)NC(=O)c2ccc([N+](=O)[O-])cc2)CC1 (mixture of isomers) [MES 10233]	36 % of DMSO control	40 (% of DMSO control 5B)/(% of D	42 % of DMSO control
CC(C)C[C@H](NC(=O)c1ccccc1)C(=O)N1CCN(C(=O)[C@H](Cc2ccccc2)NC(=O)c2ccc(/C(=N\N=C(N)N)c3ccccc3)cc2)CC1.O=C(O)C(F)(F)F [MES 10250, (Z)-Guanylhydrazone of 1-[(S)-N-(4-benzoylbenzoyl)-2-amino-3-phenylpropanoyl]-4-[(2S)-N-(benzoyl)-2-amino-4-methylpentanoyl]-1,4-piperazine trifluoroacetate]	37 % of DMSO control	49 (% of DMSO control 5B)/(% of D	40 % of DMSO control
CC(C)CC(NC(=O)c1ccc(C(=NNC(=N)N)c2ccccc2)cc1)C(=O)N1CCN(C(=O)C(CC2CCCCC2)NC(=O)c2ccc(C(=NNC(=N)N)c3ccccc3)cc2)CC1 (mixture of isomers) [MES 10238]	32 % of DMSO control	78 (% of DMSO control 5B)/(% of DMSO control 3B)	23 % of DMSO control
CC(C)CC(NC(=O)c1ccc(C(=NNC(=N)N)c2ccccc2)cc1)C(=O)N1CCN(C(=O)C(Cc2ccccc2)NC(=O)c2ccccc2)CC1 (mixture of isomers) [MES 10231]	34 % of DMSO control	33 (% of DMSO control 5B)/(% of D	49 % of DMSO control

From US6872850B2, “Small molecule inhibitors of secretion of proteins encoded by ARE-mRNAs” (Message Pharmaceuticals, priority 2001, dated 2005)
